Values of other authors as cited in PubChem BioAssay AID1259409 (Chemical Carcinogenesis Research Information System (CCRIS), 2018).

Tested on: rodent chemically induced tumor inhibition, incidence and multiplicity
Test: CCRIS tumor inhibitor studies

S=C=NC(Cc1ccccc1)c1ccccc1 (stereo not drawn)
tumour outcome (control, treated, inhibition, significance) (Carcinogen: 4-(METHYLNITROSAMINO)-1-(3-PYRIDYL)-1-BUTANONE, 64091-91-4, Dose [Inhibitor]: 0, 1 UMOL ONCE 2 HR PRIOR TO CARCINOGEN DOSE (STUDY DURATION: 16 WK), Route [Inhibitor]: GAVAGE, Species: MOUSE, Strain/Sex: STRAIN-A/FEMALE, Target Tissue: Type of Lesion: LUNG: ADENOMA, Dose [Carcinogen]: 10 UMOL IN 0.1 ML SALINE ONCE, Promoter: NONE USED): 100%, 60%, 40%, p<0.05 | tumour outcome (control, treated, inhibition, significance) (Carcinogen: 4-(METHYLNITROSAMINO)-1-(3-PYRIDYL)-1-BUTANONE, 64091-91-4, Dose [Inhibitor]: 0, 5 UMOL ONCE 2 HR PRIOR TO CARCINOGEN DOSE (STUDY DURATION: 16 WK), Route [Inhibitor]: GAVAGE, Species: MOUSE, Strain/Sex: STRAIN-A/FEMALE, Target Tissue: Type of Lesion: LUNG: ADENOMA, Dose [Carcinogen]: 10 UMOL IN 0.1 ML SALINE ONCE, Promoter: NONE USED): 100%, 45%, 55%, p<0.05

CCNc1nc(Cl)nc(NC(C)C)n1
outcome (Carcinogen: N-NITROSOBIS(2-HYDROXYPROPYL)AMINE, 53609-64-6, Dose [Inhibitor]: 0, 400 PPM IN DIET FOR 25 WK BEGINNING 9 WK POST CARCINOGEN TREATMENT (STUDY DURATION: 35 WK), Route [Inhibitor]: ORAL, Species: RAT, Strain/Sex: F344/FEMALE, Target Tissue: Type of Lesion: THYROID GLAND: ADENOMA, Dose [Carcinogen]: 2000 MG/KG 1 WK POST BILATERAL OVARIECTOMY, Promoter: SULFADIMETHOXINE, 122-11-2): 0/12 (0%), 0/15 (0%), 0%, not significant | tumour outcome (control, treated, inhibition, significance) (Carcinogen: N-NITROSOBIS(2-HYDROXYPROPYL)AMINE, 53609-64-6, Dose [Inhibitor]: 0, 400 PPM IN DIET FOR 25 WK BEGINNING 9 WK POST CARCINOGEN TREATMENT (STUDY DURATION: 35 WK), Route [Inhibitor]: ORAL, Species: RAT, Strain/Sex: F344/FEMALE, Target Tissue: Type of Lesion: THYROID GLAND: CARCINOMA, Dose [Carcinogen]: 2000 MG/KG 1 WK POST BILATERAL OVARIECTOMY, Promoter: SULFADIMETHOXINE, 122-11-2): 10/12 (83%), 9/15 (60%), 28%, not significant | outcome (Carcinogen: N-NITROSOBIS(2-HYDROXYPROPYL)AMINE, 53609-64-6, Dose [Inhibitor]: 0, 400 PPM IN DIET FOR 27 WK BEGINNING 9 WK POST CARCINOGEN TREATMENT (STUDY DURATION: 37 WK), Route [Inhibitor]: ORAL, Species: RAT, Strain/Sex: F344/FEMALE, Target Tissue: Type of Lesion: THYROID GLAND: ADENOMA, Dose [Carcinogen]: 2000 MG/KG BW 1 WK POST BILATERAL OVARIECTOMY, Promoter: SULFADIMETHOXINE, 122-11-2): 0/12 (0%), 0/15 (0%), 0%, not significant | tumour outcome (control, treated, inhibition, significance) (Carcinogen: N-NITROSOBIS(2-HYDROXYPROPYL)AMINE, 53609-64-6, Dose [Inhibitor]: 0, 400 PPM IN DIET FOR 27 WK BEGINNING 9 WK POST CARCINOGEN TREATMENT (STUDY DURATION: 37 WK), Route [Inhibitor]: ORAL, Species: RAT, Strain/Sex: F344/FEMALE, Target Tissue: Type of Lesion: THYROID GLAND: CARCINOMA, Dose [Carcinogen]: 2000 MG/KG BW 1 WK POST BILATERAL OVARIECTOMY, Promoter: SULFADIMETHOXINE, 122-11-2): 10/12 (83%), 8/15 (53%), 36%, not significant

O=C(CCCN=C=S)c1cccnc1
tumour outcome (control, treated, inhibition, significance) (Carcinogen: 4-(METHYLNITROSAMINO)-1-(3-PYRIDYL)-1-BUTANONE, 64091-91-4, Dose [Inhibitor]: 0, 5 UMOL 1/D FOR 4 D ADMINISTERED PRIOR TO CARCINOGEN DOSE (STUDY DURATION: 116 D), Route [Inhibitor]: GAVAGE, Species: MOUSE, Strain/Sex: STRAIN-A, Target Tissue: Type of Lesion: LUNG: ADENOMA, Dose [Carcinogen]: 10 UMOL IN SALINE ADMINISTERED 2 HR POST LAST AGENT DOSE, Promoter: NONE USED): 100%, 96%, 4%, not significant | tumour outcome (control, treated, inhibition, significance) (Carcinogen: 4-(N-NITROSOMETHYLAMINO)-1-(3-PYRIDYL)-1-BUTANONE, 64091-91-4, Dose [Inhibitor]: 0, 5 UMOL/D FOR 4 CONSECUTIVE DAYS (STUDY DURATION: 16.5 WK), Route [Inhibitor]: GAVAGE, Species: MOUSE, Strain/Sex: STRAIN-A/FEMALE, Target Tissue: Type of Lesion: LUNG: ADENOMA, Dose [Carcinogen]: 10 UMOL ONCE 2 HR POST LAST AGENT DOSE, Promoter: NONE USED): 100%, 96%, 4%, not calculated

O=CC[C@@H](O)[C@H](O)[C@H](O)CO
outcome (Carcinogen: 1-METHYL-1-NITROSOUREA [684-93-5], Dose [Inhibitor]: 0, 0.02, 0.03% IN DIET 6 D AFTER CARCINOGEN FOR 5 WKS, Route [Inhibitor]: DIET, Species: RAT, Strain/Sex: SPRAGUE-DAWLEY/FEMALE (30,30)/(30,30)/(30,30), Target Tissue: Type of Lesion: MAMMARY GLAND: ADENOCARCINOMA, Dose [Carcinogen]: 50 MG/KG BW AT 21 D OF AGE (STUDY DURATION: 6-7 WKS)): 25/30 (83.3%); 15/30 (50%), 40%, p<0.001; 15/30 (50%), 40%, p<0.001

c1ccc2c(c1)-c1cccc3cccc-2c13
tumour outcome (control, treated, inhibition, significance) (Carcinogen: BENZO[A]PYRENE, 50-32-8, Dose [Inhibitor]: 40 UG IN 0.1 ML ACETONE 3/WK ADMINISTERED SIMULTANEOUSLY WITH CARCINOGEN FOR DURATION OF STUDY (STUDY DURATION: 440 D), Route [Inhibitor]: DERMAL, Species: MOUSE, Strain/Sex: ICR/FEMALE, Target Tissue: Type of Lesion: SKIN: PAPILLOMA, Dose [Carcinogen]: 5 UG IN 0.1 ML ACETONE 3/WK FOR DURATION OF STUDY, Promoter: NONE USED): 16/50 (32%), 39/50 (78%), -144%, not calculated | tumour outcome (control, treated, inhibition, significance) (Carcinogen: BENZO[A]PYRENE, 50-32-8, Dose [Inhibitor]: 40 UG IN 0.1 ML ACETONE 3/WK ADMINISTERED SIMULTANEOUSLY WITH CARCINOGEN FOR DURATION OF STUDY (STUDY DURATION: 440 D), Route [Inhibitor]: DERMAL, Species: MOUSE, Strain/Sex: ICR/FEMALE, Target Tissue: Type of Lesion: SKIN: SQUAMOUS CARCINOMA, Dose [Carcinogen]: 5 UG IN 0.1 ML ACETONE 3/WK FOR DURATION OF STUDY, Promoter: NONE USED): 12/50 (24%), 37/50 (74%), -208%, not calculated

C=CCS(=O)(=O)CC=C
outcome (Carcinogen: Vinyl carbamate, 15805-73-9, Dose [Inhibitor]: 50 mg/kg once at beginning of experiment (Study duration: 25 wk), Route [Inhibitor]: Oral, Species: Mouse, Strain/Sex: F1 (Big Blue x A/J), Target Tissue: Type of Lesion: Lung: Papilliary tumors and solid tumors, Dose [Carcinogen]: 60 mg/kg once 2 hr after inhibitor (Study duration: 25 wk), Promoter: None): papilliary tumors: 84 (58%), 21 (13.5%), p<0.01 (significant decrease). solid tu

CN(C)CCOc1ccc([C@H]2C[C@]3(C)[C@@H](O)CC[C@H]3[C@@H]3CCc4cc(O)ccc4[C@H]32)cc1
tumour outcome (control, treated, inhibition, significance) (Carcinogen: ESTRADIOL, 50-28-2, Dose [Inhibitor]: 0, 25 MG/PELLET 2 PELLETS IMPLANTED EVERY 3 MO BEGINNING 15 D PRIOR TO CARCINOGEN DOSE (STUDY DURATION: 8 MO), Route [Inhibitor]: SUBCUTANEOUS IMPLANT, Species: HAMSTER, Strain/Sex: SYRIAN/MALE, Target Tissue: Type of Lesion: KIDNEY: TUMOR, Dose [Carcinogen]: 25 MG PELLET IMPLANTED EVERY 3 MO, Promoter: NONE USED): 5/5 (100%), 7/8 (88%), 12%, not significant
